According to the NIST ThermoML archive (doi:10.1016/j.jct.2012.08.004):
Values joined by “and” are separate entries in the source; they are usually repeats but may differ in a detail not shown here. Identical values can stand only once. Numbers after ± are expanded uncertainties.

Conditions: Crystal, Calculated from knudsen effusion weight loss

Cc1c[nH]c(=S)[nH]c1=O [5-methyl-2-thiouracil]
Conditions	vapor or sublimation pressure
413.15 K	0.0001771 ± 1.9e-05 kPa and 0.0001698 ± 1.8e-05 kPa
415.25 K	0.0002113 ± 2.2e-05 kPa and 0.000217 ± 2.3e-05 kPa and 0.0002102 ± 2.2e-05 kPa
417.15 K	0.0002538 ± 2.7e-05 kPa and 0.0002498 ± 2.7e-05 kPa
417.24 K	0.0002506 ± 2.7e-05 kPa
419.23 K	0.0003129 ± 3.3e-05 kPa and 0.0003018 ± 3.2e-05 kPa and 0.0003131 ± 3.3e-05 kPa
421.24 K	0.0003606 ± 3.8e-05 kPa and 0.0003744 ± 4e-05 kPa
423.16 K	0.0004363 ± 4.6e-05 kPa and 0.0004213 ± 4.5e-05 kPa and 0.0004419 ± 4.7e-05 kPa
425.2 K	0.0005302 ± 5.6e-05 kPa and 0.000505 ± 5.4e-05 kPa and 0.0005103 ± 5.4e-05 kPa
427.22 K	0.0006121 ± 6.5e-05 kPa and 0.000601 ± 6.4e-05 kPa and 0.0006259 ± 6.6e-05 kPa
429.15 K	0.0007317 ± 7.8e-05 kPa and 0.0007071 ± 7.5e-05 kPa and 0.0007522 ± 8e-05 kPa
431.22 K	0.0008692 ± 9.2e-05 kPa and 0.0008414 ± 8.9e-05 kPa and 0.000852 ± 9e-05 kPa
433.24 K	0.001032 ± 0.00013 kPa and 0.001018 ± 0.00012 kPa and 0.001053 ± 0.00013 kPa

O=c1cc[nH]c(=S)[nH]1 [2-thiouracil]
Conditions	vapor or sublimation pressure
421.15 K	0.0001325 ± 1.4e-05 kPa and 0.000123 ± 1.3e-05 kPa and 0.0001236 ± 1.3e-05 kPa
423.21 K	0.0001553 ± 1.7e-05 kPa and 0.0001548 ± 1.6e-05 kPa and 0.0001474 ± 1.6e-05 kPa
425.22 K	0.0001891 ± 2e-05 kPa and 0.000178 ± 1.9e-05 kPa and 0.0001835 ± 1.9e-05 kPa
427.15 K	0.0002128 ± 2.3e-05 kPa and 0.0002092 ± 2.2e-05 kPa and 0.0002223 ± 2.4e-05 kPa
429.2 K	0.0002611 ± 2.8e-05 kPa and 0.0002488 ± 2.6e-05 kPa and 0.0002569 ± 2.7e-05 kPa
431.23 K	0.0003061 ± 3.2e-05 kPa and 0.0002978 ± 3.2e-05 kPa and 0.0003042 ± 3.2e-05 kPa
433.16 K	0.0003652 ± 3.9e-05 kPa and 0.0003584 ± 3.8e-05 kPa and 0.0003803 ± 4e-05 kPa
435.2 K	0.0004422 ± 4.7e-05 kPa and 0.0004176 ± 4.4e-05 kPa and 0.0004406 ± 4.7e-05 kPa
437.24 K	0.0005206 ± 5.5e-05 kPa and 0.0005016 ± 5.3e-05 kPa and 0.0005328 ± 5.6e-05 kPa
439.16 K	0.0005912 ± 6.3e-05 kPa and 0.0005684 ± 6e-05 kPa and 0.0006221 ± 6.6e-05 kPa
441.22 K	0.000693 ± 7.3e-05 kPa and 0.000706 ± 7.5e-05 kPa and 0.0006718 ± 7.1e-05 kPa
443.26 K	0.000834 ± 8.8e-05 kPa and 0.0008404 ± 8.9e-05 kPa and 0.0008041 ± 8.5e-05 kPa

Cc1cc(=O)[nH]c(=S)[nH]1 [6-methyl-2-thiouracil]
Conditions	vapor or sublimation pressure
421.16 K	0.000106 ± 1.1e-05 kPa and 9.78e-05 ± 1e-05 kPa
423.15 K	0.0001239 ± 1.3e-05 kPa and 0.0001238 ± 1.3e-05 kPa and 0.0001199 ± 1.3e-05 kPa
425.17 K	0.000145 ± 1.5e-05 kPa and 0.000136 ± 1.4e-05 kPa and 0.0001411 ± 1.5e-05 kPa
427.16 K	0.0001623 ± 1.7e-05 kPa and 0.0001711 ± 1.8e-05 kPa and 0.0001818 ± 1.9e-05 kPa
429.17 K	0.0002135 ± 2.3e-05 kPa and 0.0002 ± 2.1e-05 kPa and 0.0002154 ± 2.3e-05 kPa
431.16 K	0.0002301 ± 2.7e-05 kPa and 0.0002471 ± 2.6e-05 kPa
431.19 K	0.0002525 ± 2.7e-05 kPa and 0.0002434 ± 2.6e-05 kPa and 0.0002473 ± 2.6e-05 kPa
433.2 K	0.0002894 ± 3.1e-05 kPa and 0.0002713 ± 2.9e-05 kPa and 0.0002913 ± 3.1e-05 kPa
435.22 K	0.0003418 ± 3.6e-05 kPa and 0.0003333 ± 3.5e-05 kPa and 0.0003423 ± 3.6e-05 kPa
437.17 K	0.0004046 ± 4.3e-05 kPa [middle of 5 runs]
439.2 K	0.0005278 ± 5.6e-05 kPa and 0.0004968 ± 5.3e-05 kPa and 0.0004799 ± 5.1e-05 kPa
439.22 K	0.0004689 ± 5e-05 kPa and 0.000478 ± 5.1e-05 kPa and 0.0004523 ± 4.8e-05 kPa
441.23 K	0.0005644 ± 6e-05 kPa [middle of 5 runs]
443.16 K	0.0006925 ± 7.3e-05 kPa and 0.0006452 ± 6.8e-05 kPa
443.17 K	0.0006889 ± 7.3e-05 kPa and 0.0006567 ± 7e-05 kPa
445.2 K	0.0007983 ± 8.5e-05 kPa and 0.0007787 ± 8.3e-05 kPa
445.21 K	0.000813 ± 8.6e-05 kPa and 0.0008056 ± 8.6e-05 kPa and 0.0007574 ± 8e-05 kPa
447.24 K	0.0009485 ± 0.0001 kPa [middle of 6 runs]
